# According to ChEMBL document CHEMBL4152357, “Efflux pump inhibition by 11H-pyrido[2,1-b]quinazolin-11-one analogues in mycobacteria” (Bioorg Med Chem, 2018):
# Calls of active or inactive are those of the source. No cut-off for these calls is given here.
# What was measured:
# [1] = molecular target: T1, Multidrug efflux pump LfrA (Mycobacterium smegmatis (strain ATCC 700084 / mc(2)155)) (UniProt A0R5K5); assay: Inhibition of LfrA in Mycobacterium smegmatis MC2 155 ATCC 700084 assessed as potentiation of norfloxacin-induced bactericidal activity at 25 ug/ml after 24 to 48 hrs; settings: Mycolicibacterium smegmatis MC2 155
# T1 sequence (whole entry): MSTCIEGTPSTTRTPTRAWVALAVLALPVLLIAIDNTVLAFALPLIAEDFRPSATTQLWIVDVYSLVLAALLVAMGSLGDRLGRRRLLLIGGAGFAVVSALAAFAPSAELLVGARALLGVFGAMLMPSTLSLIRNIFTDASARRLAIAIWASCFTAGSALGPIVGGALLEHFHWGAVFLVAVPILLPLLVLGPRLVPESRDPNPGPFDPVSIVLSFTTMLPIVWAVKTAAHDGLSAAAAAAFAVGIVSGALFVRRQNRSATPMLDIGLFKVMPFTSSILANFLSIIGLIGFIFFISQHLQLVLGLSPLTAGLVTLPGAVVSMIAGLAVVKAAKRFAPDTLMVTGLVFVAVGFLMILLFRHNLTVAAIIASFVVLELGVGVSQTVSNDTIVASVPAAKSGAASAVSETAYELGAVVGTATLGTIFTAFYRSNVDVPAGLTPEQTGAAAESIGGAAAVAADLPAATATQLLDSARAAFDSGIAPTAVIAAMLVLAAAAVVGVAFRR
# [2] = test system: Mycolicibacterium smegmatis; assay: Growth inhibition of Mycobacterium smegmatis MC2 155 ATCC 700084 after 72 hrs by MTT assay; format: organism-based
# [3] = molecular target: T1, Multidrug efflux pump LfrA (Mycobacterium smegmatis (strain ATCC 700084 / mc(2)155)); assay: Inhibition of LfrA in Mycobacterium smegmatis MC2 155 ATCC 700084 assessed as decrease in norfloxacin MIC at 25 ug/ml after 72 hrs by MTT assay relative to control; settings: Mycolicibacterium smegmatis MC2 155
# CC-1 = assay: Cytotoxicity against rat CC1 cells assessed as decrease in cell survival at 200 ug/ml after 24 hrs by Alamar blue reduction assay relative to control; format: cell-based; settings: cc-1, 24 h
# [4] = Cytotoxicity against rat CC1 cells assessed as cell survival at 100 ug/ml after 24 hrs by Alamar blue reduction assay relative to control; format: cell-based, CC-1; settings: read-out: Survival
# [5] = Cytotoxicity against rat CC1 cells assessed as cell survival at 50 ug/ml after 24 hrs by Alamar blue reduction assay relative to control; format: cell-based, CC-1; settings: read-out: Survival
# [6] = molecular target: T1, Multidrug efflux pump LfrA (Mycobacterium smegmatis (strain ATCC 700084 / mc(2)155)); assay: Inhibition of LfrA in Mycobacterium smegmatis MC2 155 ATCC 700084 assessed as increase in norfloxacin accumulation at 25 ug/ml measured every 5 mins for 35 mins by fluorometric analysis; settings: Mycolicibacterium smegmatis MC2 155
# [7] = molecular target: T1, Multidrug efflux pump LfrA (Mycobacterium smegmatis (strain ATCC 700084 / mc(2)155)); assay: Inhibition of LfrA in Mycobacterium smegmatis MC2 155 ATCC 700084 assessed as decrease in EtBr MIC at 3.125 ug/ml after 72 hrs by MTT assay relative to control; settings: Mycolicibacterium smegmatis MC2 155
# [8] = molecular target: T1, Multidrug efflux pump LfrA (Mycobacterium smegmatis (strain ATCC 700084 / mc(2)155)); assay: Inhibition of LfrA in Mycobacterium smegmatis MC2 155 ATCC 700084 assessed as decrease in EtBr MIC at 100 ug/ml after 72 hrs by MTT assay relative to control; settings: Mycolicibacterium smegmatis MC2 155
# [9] = molecular target: T1, Multidrug efflux pump LfrA (Mycobacterium smegmatis (strain ATCC 700084 / mc(2)155)); assay: Inhibition of LfrA in Mycobacterium smegmatis MC2 155 ATCC 700084 assessed as decrease in norfloxacin MIC at 50 ug/ml after 72 hrs by MTT assay relative to control; settings: Mycolicibacterium smegmatis MC2 155
# [10] = molecular target: T1, Multidrug efflux pump LfrA (Mycobacterium smegmatis (strain ATCC 700084 / mc(2)155)); assay: Inhibition of LfrA in Mycobacterium smegmatis MC2 155 ATCC 700084 assessed as potentiation of EtBr-induced bactericidal activity at 100 ug/ml after 24 hrs; settings: Mycolicibacterium smegmatis MC2 155
# [11] = molecular target: T1, Multidrug efflux pump LfrA (Mycobacterium smegmatis (strain ATCC 700084 / mc(2)155)); assay: Inhibition of LfrA in Mycobacterium smegmatis MC2 155 ATCC 700084 assessed as increase in EtBr accumulation at 25 ug/ml measured every 5 mins for 35 mins by fluorometric analysis; settings: Mycolicibacterium smegmatis MC2 155
# [12] = molecular target: T1, Multidrug efflux pump LfrA (Mycobacterium smegmatis (strain ATCC 700084 / mc(2)155)); assay: Inhibition of LfrA in Mycobacterium smegmatis MC2 155 ATCC 700084 assessed as increase in EtBr accumulation at 50 ug/ml measured every 5 mins for 35 mins by fluorometric analysis; settings: Mycolicibacterium smegmatis MC2 155
# [13] = molecular target: T1, Multidrug efflux pump LfrA (Mycobacterium smegmatis (strain ATCC 700084 / mc(2)155)); assay: Inhibition of LfrA in Mycobacterium smegmatis MC2 155 ATCC 700084 assessed as potentiation of EtBr-induced bactericidal activity at 2 ug/ml after 24 hrs; settings: Mycolicibacterium smegmatis MC2 155
# [14] = molecular target: T1, Multidrug efflux pump LfrA (Mycobacterium smegmatis (strain ATCC 700084 / mc(2)155)); assay: Inhibition of LfrA in Mycobacterium smegmatis MC2 155 ATCC 700084 assessed as potentiation of EtBr-induced bactericidal activity at 2 ug/ml after 48 hrs; settings: Mycolicibacterium smegmatis MC2 155
# [15] = molecular target: T1, Multidrug efflux pump LfrA (Mycobacterium smegmatis (strain ATCC 700084 / mc(2)155)); assay: Inhibition of LfrA in Mycobacterium smegmatis MC2 155 ATCC 700084 assessed as potentiation of EtBr-induced bactericidal activity at 100 ug/ml after 48 hrs; settings: Mycolicibacterium smegmatis MC2 155
# [16] = molecular target: T1, Multidrug efflux pump LfrA (Mycobacterium smegmatis (strain ATCC 700084 / mc(2)155)); assay: Inhibition of LfrA in Mycobacterium smegmatis MC2 155 ATCC 700084 assessed as decrease in EtBr MIC at 0.78 ug/ml after 72 hrs by MTT assay relative to control; settings: Mycolicibacterium smegmatis MC2 155
# [17] = molecular target: T1, Multidrug efflux pump LfrA (Mycobacterium smegmatis (strain ATCC 700084 / mc(2)155)); assay: Inhibition of LfrA in Mycobacterium smegmatis MC2 155 ATCC 700084 assessed as decrease in EtBr MIC at 16 ug/ml after 72 hrs by MTT assay relative to control; settings: Mycolicibacterium smegmatis MC2 155
# [18] = molecular target: T1, Multidrug efflux pump LfrA (Mycobacterium smegmatis (strain ATCC 700084 / mc(2)155)); assay: Inhibition of LfrA in Mycobacterium smegmatis MC2 155 ATCC 700084 assessed as decrease in norfloxacin MIC at 0.0004 ug/ml after 72 hrs by MTT assay relative to control; settings: Mycolicibacterium smegmatis MC2 155
# [19] = molecular target: T1, Multidrug efflux pump LfrA (Mycobacterium smegmatis (strain ATCC 700084 / mc(2)155)); assay: Inhibition of LfrA in Mycobacterium smegmatis MC2 155 ATCC 700084 assessed as increase in EtBr accumulation at 12.5 ug/ml measured every 5 mins for 35 mins by fluorometric analysis; settings: Mycolicibacterium smegmatis MC2 155
# [20] = molecular target: T1, Multidrug efflux pump LfrA (Mycobacterium smegmatis (strain ATCC 700084 / mc(2)155)); assay: Inhibition of LfrA in Mycobacterium smegmatis MC2 155 ATCC 700084 assessed as increase in norfloxacin accumulation at 12.5 ug/ml measured every 5 mins for 35 mins by fluorometric analysis; settings: Mycolicibacterium smegmatis MC2 155
# [21] = molecular target: T1, Multidrug efflux pump LfrA (Mycobacterium smegmatis (strain ATCC 700084 / mc(2)155)); assay: Inhibition of LfrA in Mycobacterium smegmatis MC2 155 ATCC 700084 assessed as decrease in norfloxacin MIC at 12.5 ug/ml after 72 hrs by MTT assay relative to control; settings: Mycolicibacterium smegmatis MC2 155
SMILES,MIC [2] [µg/mL],fold change (FC) [3],fractional inhibitory concentration index (FICI) [3],Activity (CC-1) [%],"viability at 24 h, 100 ug/ml [4] [%]","viability at 24 h, 50 ug/ml [5] [%]",fold change (FC) [8],fractional inhibitory concentration index (FICI) [8],inhibition [11],Activity [12] [FU],also measured
O=c1c2cccc(Cl)c2nc2ccccn12,200,8,0.25,> 50,99,100,,,,,Activity (deltalog10CFU/ml) [1]: > 3; Activity [6]: 3000 FU
Cc1ccn2c(=O)c3cccc(Cl)c3nc2c1,200,4,0.37,,,,,,,,fold change (FC) [7]: 2; fractional inhibitory concentration index (FICI) [7]: 0.5
O=c1c2cccc(Cl)c2nc2ccc(F)cn12,200,,,> 50,86,84,8,0.62,Active,> 500,fold change (FC) [9]: 4; fractional inhibitory concentration index (FICI) [9]: 0.55; inhibition [10]: Active
Cc1cccn2c(=O)c3cccc(Cl)c3nc12,200,4,0.37,> 50,42,40,8,0.62,Active,400,Activity (deltalog10CFU/ml) [13]: 7; Activity (deltalog10CFU/ml) [14]: > 3; inhibition [6]: Active
O=c1c2cccc(Cl)c2nc2c(Cl)cccn12,200,,,> 50,92,95,16,0.56,Active,> 355,fold change (FC) [9]: 4; fractional inhibitory concentration index (FICI) [9]: 0.55; Activity (deltalog10CFU/ml) [15]: 7
Cc1cccn2c(=O)c3cc(Br)ccc3nc12,200,4,0.37,,,,,,,,fold change (FC) [16]: 2; fractional inhibitory concentration index (FICI) [16]: 0.3
N#CC(C#N)=NNc1cccc(Cl)c1 [CARBONYL CYANIDE M-CHLOROPHENYLHYDRAZONE],25,,,,,,,,,,fold change (FC) [17]: 2; fractional inhibitory concentration index (FICI) [17]: 0.5; fold change (FC) [18]: 32; fractional inhibitory concentration index (FICI) [18]: 0.03; inhibition [19]: Active; Activity [20]: 1000 FU
Cc1ccn2c(=O)c3cccc(F)c3nc2c1,200,,,> 50,43,96,8,0.62,Active,> 150,fold change (FC) [21]: 4; fractional inhibitory concentration index (FICI) [21]: 0.3; inhibition [10]: Active
Cc1cccn2c(=O)c3ccc(Br)cc3nc12,200,4,0.37,,,,,,,,
